From paper PMC7853165 (Infectious Diseases and Therapy, 2021)
Like-named read-outs stand apart in the source and are kept apart here.

Assays:
[1] = biological target: T1, angiotensin-converting enzyme 2 (ACE2) (Homo sapiens, UniProt Q9BYF1); test: SPR; type: binding
[2] = biological target: T1, angiotensin-converting enzyme 2 (ACE2); test: SPR; type: binding; remark: listed apart in the source

T1 sequence (Q9BYF1 18-805): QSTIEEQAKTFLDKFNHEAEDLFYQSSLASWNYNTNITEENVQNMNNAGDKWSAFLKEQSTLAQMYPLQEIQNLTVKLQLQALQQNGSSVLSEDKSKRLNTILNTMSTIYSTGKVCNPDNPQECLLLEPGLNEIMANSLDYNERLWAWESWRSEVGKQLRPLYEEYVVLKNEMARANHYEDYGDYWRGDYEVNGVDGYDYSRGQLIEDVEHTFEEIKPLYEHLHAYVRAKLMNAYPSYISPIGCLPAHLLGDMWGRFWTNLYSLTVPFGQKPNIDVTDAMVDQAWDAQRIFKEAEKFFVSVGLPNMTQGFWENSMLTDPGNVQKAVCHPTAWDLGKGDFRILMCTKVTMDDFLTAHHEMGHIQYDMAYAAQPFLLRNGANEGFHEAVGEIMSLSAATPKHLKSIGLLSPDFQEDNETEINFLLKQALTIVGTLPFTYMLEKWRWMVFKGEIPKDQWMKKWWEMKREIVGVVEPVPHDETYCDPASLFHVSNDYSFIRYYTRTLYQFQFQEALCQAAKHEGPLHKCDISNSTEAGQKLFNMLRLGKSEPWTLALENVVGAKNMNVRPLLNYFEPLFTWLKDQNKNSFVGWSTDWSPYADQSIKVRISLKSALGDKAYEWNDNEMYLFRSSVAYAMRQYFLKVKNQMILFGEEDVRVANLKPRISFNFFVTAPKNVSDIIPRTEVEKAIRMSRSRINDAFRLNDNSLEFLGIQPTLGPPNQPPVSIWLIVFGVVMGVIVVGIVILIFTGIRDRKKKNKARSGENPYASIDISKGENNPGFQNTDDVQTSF

| SMILES | Kd [1] [µM] | Kd [2] [µM] |
| --- | --- | --- |
| CC1=CC(=O)C(C(C)C)=CC1=O [thymoquinone] | 32.1 | – |
| CC(C)C[C@H](N[C@@H](Cc1cncn1Cc1cc(Cl)cc(Cl)c1)C(=O)O)C(=O)O [MLN-4760] | – | 66 |
